One may read the IC50 as the midpoint of a concentration-inhibition curve. By EC50 is commonly meant the concentration that produces a half-maximal response.

The target in experiment [1] is T1, endogenous hP2X7 (Homo sapiens, UniProt Q99572).
T1 construct: endogenous in cells; host or cells: RPMI8226 cells
T1 sequence (Q99572 1-595): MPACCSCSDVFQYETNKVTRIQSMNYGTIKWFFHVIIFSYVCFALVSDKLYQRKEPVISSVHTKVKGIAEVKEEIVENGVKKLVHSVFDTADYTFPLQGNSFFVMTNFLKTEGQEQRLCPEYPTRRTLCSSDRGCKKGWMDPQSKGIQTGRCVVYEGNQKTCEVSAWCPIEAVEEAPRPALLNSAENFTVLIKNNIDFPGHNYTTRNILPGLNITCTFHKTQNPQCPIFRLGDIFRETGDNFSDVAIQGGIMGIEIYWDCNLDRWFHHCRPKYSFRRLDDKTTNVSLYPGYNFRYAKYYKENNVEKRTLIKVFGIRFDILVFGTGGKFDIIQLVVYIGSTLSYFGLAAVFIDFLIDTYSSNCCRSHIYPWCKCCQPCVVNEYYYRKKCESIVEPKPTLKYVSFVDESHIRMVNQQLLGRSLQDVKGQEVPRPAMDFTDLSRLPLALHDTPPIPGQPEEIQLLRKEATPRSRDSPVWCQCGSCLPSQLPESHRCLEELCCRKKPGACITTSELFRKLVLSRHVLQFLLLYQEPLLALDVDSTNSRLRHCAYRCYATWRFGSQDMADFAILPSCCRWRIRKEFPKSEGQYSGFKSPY
The experiment is described as follows: ATP-induced ethidium+ uptake in RPMI8226 multiple myeloma cells (flow cytometry). Type of experiment: cell-based.

Experiment [2] addresses T2, hP2X7 (Homo sapiens, UniProt Q99572).
T2 construct: expressed in transfected cells; host or cells: HEK293 cells, stably transfected (HEK-hP2X7)
T2 sequence (Q99572 1-595): T1 sequence (Q99572 1-595)
The experiment is described as follows: ATP-induced ethidium+ uptake in stably transfected HEK-hP2X7 cells (flow cytometry). The following applies: for maximum ATP response, ethidium+ uptake: increasing ATP; for EC50: EC50 of ATP. It counts as cell-based. On the technique in general: In flow cytometry, cells or beads pass a laser one at a time.

Experiment [3] has as its target T2, hP2X7. The experiment can be described thus: Fura-2AM Ca2+ response assay in HEK-hP2X7 cells. Type of experiment: cell-based. The following applies: for maximum ATP response, Ca2+: increasing ATP; for EC50: EC50 of ATP.
Experiment [4] has as its system P2X7-mediated CD23 shedding. The experiment can be described thus: CD23 shedding assay in RPMI8226 cells. Type of experiment: cell-based, human. On the procedure: CD23 shedding from RPMI8226 cells was conducted as described, except using LDM. Briefly, 1 × 10^6 cells in LDM were added to individual tubes and pre-incubated in the absence or presence of compound (or vehicle) (37 °C, 15 min). […] Cells were stained in the absence or presence of anti-CD23 mAb with 7AAD (on ice, 30 min, dark), washed once with D-PBS and data were collected using an LSR Fortessa X-20 flow cytometer. CD23 MFI on live cells was determined using FlowJo, with CD23 expression defined as the difference in MFI between cells stained in the presence or absence of anti-CD23 mAb. ATP-induced shedding was normalised to the maximal ATP-induced response in each experiment.

Experiment [5] relates to endogenous hP2Y receptors, including hP2Y1, hP2Y2 and hP2Y4. The experiment can be described thus: Fura-2AM Ca2+ response assay in non-transfected HEK293 cells. Type of experiment: cell-based, human. As for the experimental part:
Ca^2+ response assays were conducted as described. Briefly, HEK293, HEK-hP2X7 or HEK-hP2X4 cells were harvested and plated in black, clear-bottom 96-well plates at 5 × 10^4 cells/well overnight (37 °C, 95% air/5% CO2). Cells were washed with extracellular Ca^2+ solution (ECS) (145 mM NaCl, 2 mM CaCl2, 5 mM KCl, 13 mM glucose and 10 mM HEPES, pH 7.4) and incubated with Fura-2AM loading buffer (2.5 μM Fura-2AM and 0.2% pluronic acid in ECS) (37 °C, 95% air/5% CO2, 30 min, dark). Loading buffer was removed; cells were washed once with ECS and incubated in ECS (37 °C, 95% air/5% CO2, 20 min, dark) to allow Fura-2AM de-esterification. Where indicated, cells were pre-incubated with compound or vehicle (DMSO) (37 °C, 30 min, dark). Fura-2 fluorescence at 510 nm was measured every 5 s using a FlexStation 3 (Molecular Devices, San Jose, CA, USA). […] Data was acquired using SoftMax Pro version 7.0 (Molecular Devices). Relative changes in intracellular Ca^2+ were calculated using the ratio of Fura-2AM fluorescence at 510 nm following excitation at 340 nm and 380 nm (F340nm/380nm). […] Ca^2+ responses over time were plotted in Prism software v8.4.2 (GraphPad Software, La Jolla, CA, USA). To determine relative P2X-mediated Ca^2+ responses, the area under the curve from 100 to 180 s was calculated with GraphPad Prism. To determine P2Y-mediated Ca^2+ responses the area under the curve from 30 to 100 s was calculated. In both cases, ATP-induced responses were calculated by subtracting the corresponding basal response. These responses were normalised to the maximal ATP-induced response within their respective experiment.

Where [6] appears, read: read-out: IC50, hP2X7-mediated dye uptake.

As to `N=C(N)NC(=O)c1nc(-c2cc3cnccc3o2)c(N2CCCCCC2)nc1N` [6-FPHMA, 6-furopyridine-substituted 5-(N,N-hexamethylene) amiloride], the “blockade of hP2X7-mediated dye uptake” value in experiment [1] (30 μM compound, 300 μM ATP, RPMI8226 cells) was 100%; in experiment [2] (100 μM compound, 450 μM ATP, HEK-hP2X7 cells), 95%. The IC50 in experiment [1] (setting [6]) turned out to be 0.58 ± 0.05 µM; in experiment [2] (setting [6]) it was 1.63 ± 0.42 µM; in experiment [3] (read-out: IC50, hP2X7-mediated Ca2+ responses), 0.46 ± 0.14 µM; in experiment [4] (Homo sapiens, RPMI-8226, read-out: IC50, ATP-induced CD23 shedding), 2.3 ± 0.5 µM; in experiment [5] (2.5 μM ATP, AUC 30-100 s, read-out: IC50, endogenous hP2Y-mediated Ca2+ responses), 0.33 ± 0.13 µM. Further, the “maximum ATP response, ethidium+ uptake” value in experiment [2] (0.3 μM 6-FPHMA) was 90 ± 4%; in experiment [2] (3 μM 6-FPHMA), 52 ± 3%; in experiment [2] (30 μM 6-FPHMA) it was 13 ± 1%. Moreover, the mode of inhibition entry in experiment [2] (ethidium+ uptake, HEK-hP2X7 cells) was “non-competitive”; in experiment [3] (Ca2+ response, HEK-hP2X7 cells), “non-competitive”. For the same compound, the “maximum ATP response, Ca2+” value was found to be 54 ± 7% in experiment [3] (0.3 μM 6-FPHMA), 43 ± 6% in experiment [3] (3 μM 6-FPHMA) and 5 ± 1% in experiment [3] (30 μM 6-FPHMA). Also, in experiment [3] (30 μM compound, 720 μM ATP), the “blockade of hP2X7-mediated Ca2+ responses” value is given as 100%. For the same compound, the “blockade of ATP-induced CD23 shedding” value in experiment [4] (30 μM compound, 200 μM ATP) amounted to 97%. Moreover, the “inhibition of hP2Y-mediated Ca2+ responses” value in experiment [5] (30 μM compound, 2.5 μM ATP) is 97%.

Regarding `Nc1ncnc2c1ncn2[C@@H]1O[C@H](COP(=O)(O)OP(=O)(O)OP(=O)(O)O)[C@@H](O)[C@H]1O` [ATP, adenosine 5′-triphosphate], the EC50 in experiment [1] (RPMI8226 cells, no antagonist) stood at 311 ± 21 µM; in experiment [2] (ethidium+ uptake, HEK-hP2X7 cells, no antagonist (Figure 2C)), 466 ± 17 µM; in experiment [2] (ethidium+ uptake, in presence of 0.3 μM 6-FPHMA), 464 ± 52 µM; in experiment [2] (ethidium+ uptake, in presence of 3 μM 6-FPHMA), 517 ± 49 µM; in experiment [2] (ethidium+ uptake, in presence of 30 μM 6-FPHMA) it was 557 ± 47 µM; in experiment [2] (ethidium+ uptake, pre-incubated with DMSO vehicle (Figure 2E)), 419 ± 24 µM. In addition, the EC50 in experiment [3] (Ca2+ response, HEK-hP2X7 cells, no antagonist (Figure 2F), AUC 100-180 s) stood at 722 ± 76 µM; in experiment [3] (Ca2+ response, in presence of 0.3 μM 6-FPHMA) it was 526 ± 131 µM; in experiment [3] (Ca2+ response, in presence of 3 μM 6-FPHMA), 857 ± 317 µM; in experiment [3] (Ca2+ response, in presence of 30 μM 6-FPHMA), 691 ± 151 µM; in experiment [3] (Ca2+ response, pre-incubated with DMSO vehicle (Figure 2H)), 526 ± 127 µM; in experiment [4] (Homo sapiens, RPMI-8226, read-out: EC50 of ATP, CD23 shedding, RPMI8226 cells), 112 ± 28 µM. Moreover, the EC50 in experiment [5] (read-out: EC50 of ATP, Ca2+ response, HEK293 cells, AUC 30-100 s) came to 2.5 ± 1.01 µM. Further, in experiment [4] (RPMI8226 cells), the “ATP concentration giving maximal CD23 shedding” value came out at 200 µM. Further, the “ATP concentration giving maximum Ca2+ response” value in experiment [5] (HEK293 cells) turned out to be 300 µM.

The values are drawn from publication PMC9496321, “6-Furopyridine Hexamethylene Amiloride Is a Non-Selective P2X7 Receptor Antagonist” (Biomolecules, 2022).
